{"source": "patent US20230167073A1", "about": "(Teijin Pharma Limited, priority 2020, published 2023)"}
{"target": "T1, Human TRPC6 (Homo sapiens, UniProt Q9Y210)", "T1 construct": "expressed in transfected cells", "T1 sequence (Q9Y210 1-931)": "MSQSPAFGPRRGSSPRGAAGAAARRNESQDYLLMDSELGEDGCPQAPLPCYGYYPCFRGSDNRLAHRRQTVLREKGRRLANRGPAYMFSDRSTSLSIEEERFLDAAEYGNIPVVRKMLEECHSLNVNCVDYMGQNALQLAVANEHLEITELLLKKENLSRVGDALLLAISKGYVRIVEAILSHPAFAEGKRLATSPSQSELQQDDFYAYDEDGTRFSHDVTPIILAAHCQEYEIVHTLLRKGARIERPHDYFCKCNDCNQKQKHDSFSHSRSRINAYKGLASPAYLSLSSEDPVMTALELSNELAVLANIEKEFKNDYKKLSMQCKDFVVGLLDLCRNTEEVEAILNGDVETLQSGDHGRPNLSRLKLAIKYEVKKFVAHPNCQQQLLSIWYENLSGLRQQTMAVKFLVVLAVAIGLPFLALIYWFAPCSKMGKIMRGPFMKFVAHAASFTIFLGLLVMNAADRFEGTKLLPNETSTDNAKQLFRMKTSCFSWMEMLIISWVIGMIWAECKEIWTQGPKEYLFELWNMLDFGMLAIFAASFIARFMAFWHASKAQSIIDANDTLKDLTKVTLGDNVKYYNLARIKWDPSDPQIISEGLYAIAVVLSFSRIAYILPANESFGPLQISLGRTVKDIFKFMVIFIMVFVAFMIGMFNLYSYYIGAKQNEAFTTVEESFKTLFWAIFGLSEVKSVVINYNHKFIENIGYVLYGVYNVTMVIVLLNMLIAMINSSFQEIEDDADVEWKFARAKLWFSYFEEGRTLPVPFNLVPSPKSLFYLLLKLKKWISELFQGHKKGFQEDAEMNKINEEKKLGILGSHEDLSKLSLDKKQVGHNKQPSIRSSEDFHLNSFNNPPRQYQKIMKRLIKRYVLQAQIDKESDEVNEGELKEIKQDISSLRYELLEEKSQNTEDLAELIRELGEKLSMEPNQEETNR", "assay": "Evaluation of TRPC6 channel inhibitory activity (1), FLIPR Calcium 5 Assay Kit, OAG stimulation (Compound Nos. 1-1293)", "format": "cell-based", "conditions": "Human TRPC6 stably-expressing cells, OAG 30 μM, FLIPR Calcium 5 Assay Kit; read-out: Inhibitory activity (pIC50 class) (converted)", "outline": "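The FLIPR signal is maximum fluorescence after 30 μM OAG minus minimum before compound, measured in a human TRPC6 stable line loaded with Calcium 5 dye. Compounds were preincubated 20 min. pIC50 came from four-parameter logistic fitting of inhibition rates and is given as symbol ranges.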", "units": {"IC50": "nM"}}
{"smiles": "Cc1nn(CC(F)(F)F)cc1Oc1cc(F)ccc1-c1ncc(CCN)cn1", "note": "[compound 968, 2-[2-[4-fluoro-2-[3-methyl-1-(2,2,2-trifluoroethyl)pyrazol-4-yl]oxyphenyl]pyrimidin-5-yl]ethanamine]", "IC50": "< 10"}
{"smiles": "Cc1nn(-c2ccccn2)cc1Oc1cc(F)ccc1-c1ncc(CCN)cn1", "note": "[compound 969, 2-[2-[4-fluoro-2-(3-methyl-1-pyridin-2-ylpyrazol-4-yl)oxyphenyl]pyrimidin-5-yl]ethanamine]", "IC50": "< 10"}
{"smiles": "Cc1c(Oc2cc(F)ccc2-c2ncc(CCN)cn2)cnn1CC(F)(F)F", "note": "[compound 970, 2-[2-[4-fluoro-2-[5-methyl-1-(2,2,2-trifluoroethyl)pyrazol-4-yl]oxyphenyl]pyrimidin-5-yl]ethanamine]", "IC50": "> 1000"}
{"smiles": "Cc1c(Oc2cc(F)ccc2-c2ncc(CCN)cn2)cnn1-c1ccccn1", "note": "[compound 971, 2-[2-[4-fluoro-2-(5-methyl-1-pyridin-2-ylpyrazol-4-yl)oxyphenyl]pyrimidin-5-yl]ethanamine]", "IC50": "> 1000"}
{"smiles": "CCN(CC)c1cc(Oc2cc(F)ccc2-c2ncc(CCN)cn2)n(C)n1", "note": "[compound 972, 5-[2-[5-(2-aminoethyl)pyrimidin-2-yl]-5-fluorophenoxy]-N,N-diethyl-1-methylpyrazole-3-amine]", "IC50": "< 10"}
{"smiles": "Cn1nc(N2CCOCC2)cc1Oc1cc(F)ccc1-c1ncc(CCN)cn1", "note": "[compound 973, 2-[2-[4-fluoro-2-(2-methyl-5-morpholin-4-ylpyrazol-3-yl)oxyphenyl]pyrimidin-5-yl]ethanamine]", "IC50": "10 to 1000"}
{"smiles": "Cn1nc(N2CCOCC2)cc1Oc1cc(F)ccc1-c1ncc(CN)cn1", "note": "[compound 974, [2-[4-fluoro-2-(2-methyl-5-morpholin-4-ylpyrazol-3-yl)oxyphenyl]pyrimidin-5-yl]methanamine]", "IC50": "10 to 1000"}
{"smiles": "Cn1nc(N2CCOCC2)cc1Oc1cc(F)ccc1-c1ccc(CCN)cn1", "note": "[compound 975, 2-[6-[4-fluoro-2-(2-methyl-5-morpholin-4-ylpyrazol-3-yl)oxyphenyl]pyridin-3-yl]ethanamine]", "IC50": "< 10"}
{"smiles": "Cn1nc(N2CCOCC2)cc1Oc1cc(F)ccc1-c1ccc(CN)cn1", "note": "[compound 976, [6-[4-fluoro-2-(2-methyl-5-morpholin-4-ylpyrazo1-3-yl)oxyphenyl]pyridin-3-yl]methanamine]", "IC50": "10 to 1000"}
{"smiles": "Cn1nc(-c2ccccn2)cc1Oc1cc(F)ccc1-c1ncc(CCN)cn1", "note": "[compound 977, 2-[2-[4-fluoro-2-(2-methyl-5-pyridin-2-ylpyrazol-3-yl)oxyphenyl]pyrimidin-5-yl]ethanamine]", "IC50": "< 10"}
{"smiles": "Cc1cc(Oc2cc(F)ccc2-c2ncc(CCN)cn2)cc(N2CCOCC2)n1", "note": "[compound 978, 2-[2-[4-fluoro-2-(2-methyl-6-morpholin-4-ylpyridin-4-yl)oxyphenyl]pyrimidin-5-yl]ethanamine]", "IC50": "< 10"}
{"smiles": "Cn1nc(N2CCCC2)cc1Oc1cc(F)ccc1-c1ncc(CCN)cn1", "note": "[compound 979, 2-[2-[4-fluoro-2-(2-methyl-5-pyrrolidin-1-ylpyrazol-3-yl)oxyphenyl]pyrimidin-5-yl]ethanamine]", "IC50": "< 10"}
{"smiles": "Cn1nc(N2CCCC2)cc1Oc1cc(F)ccc1-c1ccc(CCN)cn1", "note": "[compound 980, 2-[6-[4-fluoro-2-(2-methyl-5-pyrrolidin-1-ylpyrazol-3-yl)oxyphenyl]pyridin-3-yl]ethanamine]", "IC50": "< 10"}
{"smiles": "CC(C)n1cc(Oc2cc(F)ccc2-c2ncc(CCN)cn2)cn1", "note": "[compound 981, 2-[2-[4-fluoro-2-(1-propan-2-ylpyrazol-4-yl)oxyphenyl]pyrimidin-5-yl]ethanamine]", "IC50": "10 to 1000"}
{"smiles": "CC(C)Cn1cc(Oc2cc(F)ccc2-c2ncc(CCN)cn2)cn1", "note": "[compound 982, 2-[2-[4-fluoro-2-[1-(2-methylpropyl)pyrazol-4-yl]oxyphenyl]pyrimidin-5-yl]ethanamine]", "IC50": "10 to 1000"}
{"smiles": "Cc1nn(C(C)C)cc1Oc1cc(F)ccc1-c1ncc(CCN)cn1", "note": "[compound 983, 2-[2-[4-fluoro-2-(3-methyl-1-propan-2-ylpyrazol-4-yl)oxyphenyl]pyrimidin-5-yl]ethanamine]", "IC50": "< 10"}
{"smiles": "Cc1c(Oc2cc(F)ccc2-c2ncc(CCN)cn2)cnn1C(C)C", "note": "[compound 984, 2-[2-[4-fluoro-2-(5-methyl-1-propan-2-ylpyrazol-4-yl)oxyphenyl]pyrimidin-5-yl]ethanamine]", "IC50": "10 to 1000"}
{"smiles": "Cc1nn(CC(C)(C)C)cc1Oc1cc(F)ccc1-c1ncc(CCN)cn1", "note": "[compound 985, 2-[2-[2-[1-(2,2-dimethylpropyl)-3-methylpyrazol-4-yl]oxy-4-fluorophenyl]pyrimidin-5-yl]ethanamine]", "IC50": "< 10"}
{"smiles": "Cc1c(Oc2cc(F)ccc2-c2ncc(CCN)cn2)cnn1CC(C)(C)C", "note": "[compound 986, 2-[2-[2-[1-(2,2-dimethylpropyl)-5-methylpyrazol-4-yl]oxy-4-fluorophenyl]pyrimidin-5-yl]ethanamine]", "IC50": "10 to 1000"}
{"smiles": "CN(CC(F)F)c1cc(Oc2cc(F)ccc2-c2ncc(CCN)cn2)n(C)n1", "note": "[compound 987, 5-[2-[5-(2-aminoethyl)pyrimidin-2-yl]-5-fluorophenoxy]-N-(2,2-difluoroethyl)-N,1-dimethylpyrazole-3-amine]", "IC50": "< 10"}
{"smiles": "CN(CC(F)F)c1cc(Oc2cc(F)ccc2-c2ccc(CCN)cn2)n(C)n1", "note": "[compound 988, 5-[2-[5-(2-aminoethyl)pyridin-2-yl]-5-fluorophenoxy]-N-(2,2-difluoroethyl)-N,1-dimethylpyrazole-3-amine]", "IC50": "< 10"}
{"smiles": "CCN(CC(F)F)c1cc(Oc2cc(F)ccc2-c2ncc(CCN)cn2)n(C)n1", "note": "[compound 989, 5-[2-[5-(2-aminoethyl)pyrimidin-2-yl]-5-fluorophenoxy]-N-(2,2-difluoroethyl)-N-ethyl-1-methylpyrazole-3-amine]", "IC50": "< 10"}
{"smiles": "CCN(CC(F)F)c1cc(Oc2cc(F)ccc2-c2ccc(CCN)cn2)n(C)n1", "note": "[compound 990, 5-[2-[5-(2-aminoethyl)pyridin-2-yl]-5-fluorophenoxy]-N-(2,2-difluoroethyl)-N-ethyl-1-methylpyrazole-3-amine]", "IC50": "< 10"}
{"smiles": "CCN(CC)c1cc(Oc2cc(F)ccc2-c2ccc(CCN)cn2)n(C)n1", "note": "[compound 991, 5-[2-[5-(2-aminoethyl)pyridin-2-yl]-5-fluorophenoxy]-N,N-diethyl-1-methylpyrazole-3-amine]", "IC50": "< 10"}
{"smiles": "CCN(CC)c1cc(Oc2cc(F)ccc2-c2ncc(CN)cn2)n(C)n1", "note": "[compound 992, 5-[2-[5-(aminomethyl)pyrimidin-2-yl]-5-fluorophenoxy]-N,N-diethyl-1-methylpyrazole-3-amine]", "IC50": "< 10"}
{"smiles": "CN(CC(F)F)c1cc(Oc2cc(F)ccc2-c2ncc(CN)cn2)n(C)n1", "note": "[compound 993, 5-[2-[5-(aminomethyl)pyrimidin-2-yl]-5-fluorophenoxy]-N-(2,2-difluoroethyl)-N,1-dimethylpyrazole-3-amine]", "IC50": "10 to 1000"}
{"smiles": "CCN(CC(F)F)c1cc(Oc2cc(F)ccc2-c2ncc(CN)cn2)n(C)n1", "note": "[compound 994, 5-[2-[5-(aminomethyl)pyrimidin-2-yl]-5-fluorophenoxy]-N-(2,2-difluoroethyl)-N-ethyl-1 methylpyrazole-3-amine]", "IC50": "10 to 1000"}
{"smiles": "Cn1nc(N2CCCC2)cc1Oc1cc(F)ccc1-c1ncc(CN)cn1", "note": "[compound 995, [2-[4-fluoro-2-(2-methyl-5-pyrrolidin-1-ylpyrazol-3-yl)oxyphenyl]pyrimidin-5-yl]methanamine]", "IC50": "10 to 1000"}
{"smiles": "Cn1nc(N2CCCC2)cc1Oc1cc(F)ccc1-c1ccc(CN)cn1", "note": "[compound 996, [6-[4-fluoro-2-(2-methyl-5-pyrrolidin-1-ylpyrazol-3-yl)oxyphenyl]pyridin-3-yl]methanamine]", "IC50": "< 10"}
{"smiles": "CN(C)c1cc(Oc2cc(F)ccc2-c2ncc(CN)cn2)n(C)n1", "note": "[compound 997, 5-[2-[5-(aminomethyl)pyrimidin-2-yl]-5-fluorophenoxy]-N,N,1 trimethylpyrazole-3-amine]", "IC50": "10 to 1000"}
{"smiles": "CN(C)c1cc(Oc2cc(F)ccc2-c2ccc(CN)cn2)n(C)n1", "note": "[compound 998, 5-[2-[5-(aminomethyl)pyridin-2-yl]-5-fluorophenoxy]-N,N,1-trimethylpyrazole-3-amine]", "IC50": "10 to 1000"}
{"smiles": "CN(C)c1cc(Oc2cc(F)ccc2-c2ncc(CCN)cn2)n(C)n1", "note": "[compound 999, 5-[2-[5-(2-aminoethyl)pyrimidin-2-yl]-5-fluorophenoxy]-N,N,1-trimethylpyrazole-3-amine]", "IC50": "10 to 1000"}
{"smiles": "CN(C)c1cc(Oc2cc(F)ccc2-c2ccc(CCN)cn2)n(C)n1", "note": "[compound 1000, 5-[2-[5-(2-aminoethyl)pyridin-2-yl]-5-fluorophenoxy]-N,N,1-trimethylpyrazole-3-amine]", "IC50": "< 10"}
